These results are taken from PubChem BioAssay AID270 (DTP/NCI, 2004).

This test has as its system BDF1 mice, s.c. Lewis lung carcinoma, T/C %. Kind of test: NCI In Vivo Anticancer Drug Screen. Data for tumor model Lewis Lung Carcinoma (subcutaneous) in B6D2F1 (BDF1) mice. As for the experimental part: The antitumor activity of compounds was measured in mice bearing transplantable tumors. Survival or tumor size were measured and the results are expressed as the measurement made in the treated group (T) divided by the measurement made in the vehicle treated control group (C). The tumor model used in this assay is Lewis Lung Carcinoma (subcutaneous) in B6D2F1 (BDF1) mice

Where [1] appears, read: endpoint: median survival time, dose: 100.0 mg/kg/injection, schedule: Q01DX009 (ip), vehicle: saline, higher = longer survival.
[2] abbreviates: endpoint: median survival time, dose: 12.5 mg/kg/injection, schedule: Q01DX009 (ip), vehicle: saline, higher = longer survival.

Several values for one entry are separate records, joined by “and”; a condition that tells them apart may be missing. Identical values can stand only once. Records with an inconclusive call do not appear.

For the molecule `[I][Hg][CH2]C1OCCOC1[CH2][Hg][I]` (stereo unspecified), the T/C runs as follows: (endpoint: mean tumor weight, dose: 18.75 mg/kg/injection, schedule: Q01DX011 (ip), vehicle: saline, higher = larger tumour) 79 % of control; (endpoint: mean tumor weight, dose: 37.5 mg/kg/injection, schedule: Q01DX011 (ip), vehicle: saline, higher = larger tumour) 64 % of control; (endpoint: mean tumor weight, dose: 75.0 mg/kg/injection, schedule: Q01DX011 (ip), vehicle: saline, higher = larger tumour) 54 % of control.

On to `C=C(C)[C@H]1Cc2c(ccc3c2O[C@@H]2COc4cc(OC)c(OC)cc4[C@@H]2C3=O)O1`, for which the T/C runs as follows: (endpoint: mean tumor weight, dose: 0.25 mg/kg/injection, schedule: Q01DX011 (ip), vehicle: water, higher = larger tumour) 76 % of control; (endpoint: mean tumor weight, dose: 0.5 mg/kg/injection, schedule: Q01DX011 (ip), vehicle: water, higher = larger tumour) 65 % of control; (endpoint: mean tumor weight, dose: 1.0 mg/kg/injection, schedule: Q01DX011 (ip), vehicle: water, higher = larger tumour) 60 % of control.

For the molecule `COc1cc(C2c3cc4c(cc3CC3COC(=O)C32)OCO4)cc(OC)c1O` (stereo unspecified), the T/C runs as follows: (endpoint: median survival time, dose: 0.5 mg/kg/injection, schedule: Q01DX009 (ip), vehicle: saline with Tween-80, higher = longer survival) 104 % of control; (endpoint: median survival time, dose: 1.0 mg/kg/injection, schedule: Q01DX009 (ip), vehicle: saline with Tween-80, higher = longer survival) 101 % of control; (endpoint: median survival time, dose: 2.0 mg/kg/injection, schedule: Q01DX009 (ip), vehicle: saline with Tween-80, higher = longer survival) 107 % of control.

`CSc1ccc(NC(=O)N(CCCl)N=O)cc1`: the T/C (endpoint: median survival time, dose: 6.25 mg/kg/injection, schedule: Q01DX009 (ip), vehicle: Klucel (hydroxypropylcellulose) (HPC), higher = longer survival) was 115 % of control; the T/C (endpoint: median survival time, dose: 12.5 mg/kg/injection, schedule: Q01DX009 (ip), vehicle: Klucel (hydroxypropylcellulose) (HPC), higher = longer survival) was 90 % of control; the T/C (endpoint: median survival time, dose: 25.0 mg/kg/injection, schedule: Q01DX009 (ip), vehicle: Klucel (hydroxypropylcellulose) (HPC), higher = longer survival) is 106 % of control; the T/C (endpoint: median survival time, dose: 50.0 mg/kg/injection, schedule: Q01DX009 (ip), vehicle: Klucel (hydroxypropylcellulose) (HPC), higher = longer survival) was 103 % of control.

As to `ClCCn1cnc2c(SCc3ccccc3)ncnc21`, the T/C (endpoint: mean tumor weight, dose: 60.0 mg/kg/injection, schedule: Q01DX011 (ip), vehicle: other, higher = larger tumour) was 107 % of control; the T/C (endpoint: mean tumor weight, dose: 120.0 mg/kg/injection, schedule: Q01DX011 (ip), vehicle: other, higher = larger tumour) was 77 % of control; the T/C (endpoint: mean tumor weight, dose: 240.0 mg/kg/injection, schedule: Q01DX011 (ip), vehicle: other, higher = larger tumour) is 46 % of control.

Regarding `CCCCCCCCCCCCO[P+](=O)OCCCCCCCCCCCC`, the T/C runs as follows: (endpoint: mean tumor weight, dose: 50.0 mg/kg/injection, schedule: Q01DX011 (ip), vehicle: other, higher = larger tumour) 122 % of control; (endpoint: mean tumor weight, dose: 100.0 mg/kg/injection, schedule: Q01DX011 (ip), vehicle: other, higher = larger tumour) 98 % of control; (endpoint: mean tumor weight, dose: 200.0 mg/kg/injection, schedule: Q01DX011 (ip), vehicle: other, higher = larger tumour) 76 % of control; (endpoint: mean tumor weight, dose: 400.0 mg/kg/injection, schedule: Q01DX011 (ip), vehicle: other, higher = larger tumour) 65 % of control; (endpoint: mean tumor weight, dose: 400.0 mg/kg/injection, schedule: Q01DX011 (ip), vehicle: saline, higher = larger tumour) 36 % of control; (endpoint: mean tumor weight, dose: 600.0 mg/kg/injection, schedule: Q01DX011 (ip), vehicle: saline, higher = larger tumour) 19 % of control. Further, the T/C is 21 % of control (endpoint: mean tumor weight, dose: 900.0 mg/kg/injection, schedule: Q01DX011 (ip), vehicle: saline, higher = larger tumour); 108 % of control (endpoint: median survival time, dose: 50.0 mg/kg/injection, schedule: Q01DX009 (ip), vehicle: saline, higher = longer survival); 99 % of control under setting [1].

Take `CNC1C(OC2C(OC3C(O)C(O)C(N=C(N)N)C(O)C3N=C(N)N)OC(C)C2(O)C=O)OC(CO)C(O)C1O` (stereo unspecified): the T/C is, setting by setting: (endpoint: median survival time, dose: 50.0 mg/kg/injection, schedule: Q01DX009 (ip), vehicle: water, higher = longer survival) 95 % of control; (endpoint: median survival time, dose: 100.0 mg/kg/injection, schedule: Q01DX009 (ip), vehicle: water, higher = longer survival) 102 % of control; (endpoint: median survival time, dose: 200.0 mg/kg/injection, schedule: Q01DX009 (ip), vehicle: water, higher = longer survival) 105 % of control.

Regarding `CCCCCOC(CN)C(Cl)(Cl)Cl` (stereo unspecified), the T/C was 100 % of control under setting [2]; 92 % of control (endpoint: median survival time, dose: 25.0 mg/kg/injection, schedule: Q01DX009 (ip), vehicle: saline, higher = longer survival); 95 % of control under setting [1].

With `COc1cccc(/C=N\NC(=O)C(C)SC(C)C(=O)N/N=C/c2cccc(OC)c2)c1` (stereo unspecified), the T/C by setting is: (endpoint: mean tumor weight, dose: 25.0 mg/kg/injection, schedule: Q01DX011 (ip), vehicle: carboxymethylcellulose (CMC), higher = larger tumour) 82 % of control; (endpoint: mean tumor weight, dose: 50.0 mg/kg/injection, schedule: Q01DX011 (ip), vehicle: carboxymethylcellulose (CMC), higher = larger tumour) 113 % of control; (endpoint: mean tumor weight, dose: 100.0 mg/kg/injection, schedule: Q01DX011 (ip), vehicle: carboxymethylcellulose (CMC), higher = larger tumour) 67 % of control; (endpoint: mean tumor weight, dose: 200.0 mg/kg/injection, schedule: Q01DX011 (ip), vehicle: carboxymethylcellulose (CMC), higher = larger tumour) 101 % of control; (endpoint: mean tumor weight, dose: 400.0 mg/kg/injection, schedule: Q01DX011 (ip), vehicle: carboxymethylcellulose (CMC), higher = larger tumour) 99 % of control; (endpoint: mean tumor weight, dose: 600.0 mg/kg/injection, schedule: Q01DX011 (ip), vehicle: carboxymethylcellulose (CMC), higher = larger tumour) 85 % of control.

As for `CC(=O)CC(C)=O.CC(=O)CC(C)=O.CC(=O)CC(C)=O.[V]`, the T/C is, setting by setting: (endpoint: median survival time, dose: 3.12 mg/kg/injection, schedule: Q01DX009 (ip), vehicle: saline, higher = longer survival) 109 % of control; (endpoint: median survival time, dose: 6.25 mg/kg/injection, schedule: Q01DX009 (ip), vehicle: saline, higher = longer survival) 109 % of control; under setting [2], 94 % of control.

With `CCN(CC)Cc1c(O)ccc2c3c(c(=O)oc12)CCCC3`, the T/C was 99 % of control (endpoint: median survival time, dose: 29.0 mg/kg/injection, schedule: Q01DX009 (ip), vehicle: Klucel (hydroxypropylcellulose) (HPC), higher = longer survival) and 94 % of control (endpoint: median survival time, dose: 58.0 mg/kg/injection, schedule: Q01DX009 (ip), vehicle: Klucel (hydroxypropylcellulose) (HPC), higher = longer survival).

Regarding `CC(=O)OCC1CCC(NC(=O)N(CCCl)N=O)CC1` (stereo unspecified), the T/C runs as follows: (endpoint: median survival time, dose: 8.0 mg/kg/injection, schedule: Q01DX001 (ip), vehicle: Klucel (hydroxypropylcellulose) (HPC), higher = longer survival) 112 % of control; (endpoint: median survival time, dose: 12.0 mg/kg/injection, schedule: Q01DX001 (ip), vehicle: Klucel (hydroxypropylcellulose) (HPC), higher = longer survival) 124 % of control; (endpoint: median survival time, dose: 18.0 mg/kg/injection, schedule: Q01DX001 (ip), vehicle: Klucel (hydroxypropylcellulose) (HPC), higher = longer survival) 163 % of control; (endpoint: median survival time, dose: 26.0 mg/kg/injection, schedule: Q01DX001 (ip), vehicle: Klucel (hydroxypropylcellulose) (HPC), higher = longer survival) 160 % of control; (endpoint: median survival time, dose: 40.0 mg/kg/injection, schedule: Q01DX001 (ip), vehicle: Klucel (hydroxypropylcellulose) (HPC), higher = longer survival) 104 % of control.

In the case of `Nc1ncn(C2OC(CO)C(O)C2O)c(=O)n1` (stereo unspecified), the T/C by setting is: (endpoint: median survival time, dose: 0.75 mg/kg/injection, schedule: Q01DX009 (ip), vehicle: saline, higher = longer survival) 105 % of control and 112 % of control and 121 % of control; (endpoint: median survival time, dose: 1.5 mg/kg/injection, schedule: Q01DX009 (ip), vehicle: saline, higher = longer survival) 121 % of control and 124 % of control; (endpoint: median survival time, dose: 3.0 mg/kg/injection, schedule: Q01DX009 (ip), vehicle: saline, higher = longer survival) 105 % of control and 110 % of control; (endpoint: median tumor weight (est.), dose: 0.75 mg/kg/injection, schedule: Q01DX009 (ip), vehicle: saline, higher = larger tumour) 75 % of control; (endpoint: median tumor weight (est.), dose: 1.5 mg/kg/injection, schedule: Q01DX009 (ip), vehicle: saline, higher = larger tumour) 73 % of control; (endpoint: median tumor weight (est.), dose: 3.0 mg/kg/injection, schedule: Q01DX009 (ip), vehicle: saline, higher = larger tumour) 59 % of control.

For the molecule `CCO/C=C1\SC(=S)N(c2cccc(OC)c2)C1=O`, the T/C reads like this: (endpoint: median survival time, dose: 50.0 mg/kg/injection, schedule: Q01DX001 (ip), vehicle: Klucel (hydroxypropylcellulose) (HPC), higher = longer survival) 101 % of control; (endpoint: median survival time, dose: 100.0 mg/kg/injection, schedule: Q01DX001 (ip), vehicle: Klucel (hydroxypropylcellulose) (HPC), higher = longer survival) 104 % of control; (endpoint: median survival time, dose: 200.0 mg/kg/injection, schedule: Q01DX001 (ip), vehicle: Klucel (hydroxypropylcellulose) (HPC), higher = longer survival) 102 % of control; (endpoint: median survival time, dose: 400.0 mg/kg/injection, schedule: Q01DX001 (ip), vehicle: Klucel (hydroxypropylcellulose) (HPC), higher = longer survival) 101 % of control.

In the case of `Nc1nc(SCc2ccc([N+](=O)[O-])cc2)c2[nH]cnc2n1`, the T/C is 98 % of control (endpoint: mean tumor weight, dose: 125.0 mg/kg/injection, schedule: Q01DX011 (ip), vehicle: other, higher = larger tumour); 75 % of control (endpoint: mean tumor weight, dose: 250.0 mg/kg/injection, schedule: Q01DX011 (ip), vehicle: other, higher = larger tumour); 80 % of control (endpoint: mean tumor weight, dose: 500.0 mg/kg/injection, schedule: Q01DX011 (ip), vehicle: other, higher = larger tumour); 36 % of control (endpoint: mean tumor weight, dose: 1000.0 mg/kg/injection, schedule: Q01DX011 (ip), vehicle: other, higher = larger tumour).
